Data from patent US20240010635A1, “NOVEL INDIRUBIN DERIVATIVES HAVING HETEROBICYCLIC MOIETIES AND THE USE THEREOF” (priority 2022, published 2024).
Changes are numbered by the printed parent chain.

Assays:
Assay type in all cases: biochemical
FLT3 WT = biological target: T1, FLT3 WT (Homo sapiens, UniProt P36888); experiment: ADP-Glo kinase assay, FLT3 WT; settings: recombinant FLT3, ADP-Glo, 120 min room temperature; read-out: Enzyme activity (IC50, nM) FLT3 WT
T1 construct: Recombinant proteins containing the FLT3 and FLT3 (D835Y) domains were purchased from Promega; purchased Promega V4064
T1 sequence (P36888 610-943 limits assumed): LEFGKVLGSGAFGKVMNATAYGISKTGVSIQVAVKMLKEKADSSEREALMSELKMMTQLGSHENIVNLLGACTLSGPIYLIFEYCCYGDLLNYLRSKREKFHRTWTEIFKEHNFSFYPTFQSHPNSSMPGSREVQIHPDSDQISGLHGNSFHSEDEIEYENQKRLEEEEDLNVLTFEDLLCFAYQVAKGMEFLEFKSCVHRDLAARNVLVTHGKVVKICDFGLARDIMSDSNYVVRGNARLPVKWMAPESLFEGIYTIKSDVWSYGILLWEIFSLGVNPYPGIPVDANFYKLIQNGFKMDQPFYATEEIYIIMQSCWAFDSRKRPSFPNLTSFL
Protocol: (§1) FLT3 activity inhibition was measured by ADP-Glo kinase assay (Promega, cat #V9101). ADP-Glo kinase analysis method is an emission ADP detect method which measures kinase activity by quantification of ADP amount produced during kinase reaction and provides uniform high-throughput screening method.
(§2) Analysis performed in two steps. First, after kinase reaction, ADP-Glo™ reagent of equal volume was added to finish kinase reaction, and then the rest ATP was exhausted. Second, Kinase Detection Reagent was added to convert ADP to ATP and newly synthesized ATP was measured by luciferase/luciferin reaction at the same time. Generated light was measured by using luminometer. The measured luminescence amount can be applied to the ATP→ADP standard conversion curve to confirm the correlation with the ADP concentration.
(§3) Recombinant proteins containing the FLT3 and FLT3 (D835Y) domains were purchased from Promega (cat #V4064, cat #V4514), respectively. According to the manufacturer's instructions, optimal enzyme, ATP, and substrate concentration were established using the ADP-Glo™ Kinase Assay (Promega, USA). Kinase reaction buffer 5× (200 mM Tris-HCl, pH 7.5, 100 mM MgCl2, 0.5 mg/ml BSA) was diluted and used, and the diluted compound of the present invention (5×, 1 μl), FLT3 enzyme or FLT3/D835Y enzyme (2.5×, 2 μl) and substrate/ATP mixture (2.5×, 2 μl), were mixed sequentially and reacted at room temperature for 120 minutes. Then, ADP-Glo™ Reagent (5 μl) was added and reacted for 40 min at room temperature. Finally, after adding a reagent for detection (Kinase Detection Reagent, 10 μl), reacting at room temperature for 30 min, and then phosphorylation of substrate peptide was measured by measuring luciferase signal (Integration time 0.5-1 second) using SpectraMax ID5 reader (Molecular Devices LLC., San Jose, CA, USA). IC50 was calculated by nonlinear regression using Prism version 5.01 (GrapghPad).

FLT3 D835Y = biological target: T2, FLT3 D835Y (Homo sapiens, UniProt P36888, D835Y); experiment: ADP-Glo kinase assay, FLT3 D835Y; settings: recombinant FLT3 (D835Y), 120 min room temperature, read-out: Enzyme activity (IC50, nM) FLT3 D835Y
T2 construct: Recombinant proteins containing the FLT3 and FLT3 (D835Y) domains were purchased from Promega; purchased Promega V4514
T2 sequence (P36888 610-943 D835Y limits assumed): T1 sequence (P36888 610-943 limits assumed) with D226Y
Protocol: as §1, §2, §3

RET WT = biological target: T3, RET WT (Homo sapiens, UniProt P07949); experiment: ADP-Glo kinase assay, RET WT; settings: recombinant RET wt, 120 min room temperature, read-out: Enzyme activity (IC50, nM) RET WT
T3 construct: Recombinant proteins containing RET wt, RET (M918T) and RET (V804L) domains were purchased from Promega; purchased Promega V8061
T3 sequence (P07949 724-1016 limits assumed): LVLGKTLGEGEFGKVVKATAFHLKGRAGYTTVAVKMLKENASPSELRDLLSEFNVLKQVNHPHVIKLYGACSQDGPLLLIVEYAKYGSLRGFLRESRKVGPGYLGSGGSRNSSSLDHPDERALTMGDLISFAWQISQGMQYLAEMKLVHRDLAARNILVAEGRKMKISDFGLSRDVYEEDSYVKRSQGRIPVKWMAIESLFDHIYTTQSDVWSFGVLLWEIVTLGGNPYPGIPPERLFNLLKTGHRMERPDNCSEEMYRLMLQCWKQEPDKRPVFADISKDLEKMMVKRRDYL
Protocol: as §2
(§4) Recombinant proteins containing RET wt, RET (M918T) and RET (V804L) domains were purchased from Promega (cat #V8061, cat #VA7274, cat #V4473), respectively. According to the manufacturer's instructions, optimal enzyme, ATP, and substrate concentration were established using ADP-Glo™ Kinase Assay (Promega, USA). […] Then, ADP-Glo™ Reagent (5 μl) was added and reacted at room temperature for further 40 min. Lastly, Kinase Detection Reagent (10 μl) was added and reacted for 30 min more at room temperature, and then phosphorylation of substrate peptide was measured by measuring luciferase signal (Integration time 0.5-1 second) using SpectraMax ID5 reader (Molecular Devices LLC., San Jose, CA, USA). IC50 was calculated by nonlinear regression using Prism version 5.01 (GrapghPad).

RET M918T = biological target: T4, RET M918T (Homo sapiens, UniProt P07949, M918T); experiment: ADP-Glo kinase assay, RET M918T; settings: recombinant RET (M918T), 120 min room temperature, read-out: Enzyme activity (IC50, nM) RET M918T
T4 construct: Recombinant proteins containing RET wt, RET (M918T) and RET (V804L) domains were purchased from Promega; purchased Promega VA7274
T4 sequence (P07949 724-1016 M918T limits assumed): T3 sequence (P07949 724-1016 limits assumed) with M195T
Protocol: as §2, §4

Compound | IC50 (FLT3 WT) | IC50 (FLT3 D835Y) | IC50 (RET WT) | IC50 (RET M918T)
O=C1Nc2ccccc2/C1=C1/Nc2ccccc2/C1=N\OCC(=O)N1C[C@H]2C[C@@H]1CN2 [Example 17, (2Z,3E)-3-((2-((1R,4R)-2,5-diazabicyclo[2.2.1]heptan-2-yl)-2-oxoethoxy)imino)-[2,3′-biindolinylidene]-2′-one] | 4.24 nM | 0.552 nM | 1.53 nM | 1.44 nM
O=C1Nc2ccc(F)cc2/C1=C1/Nc2ccccc2/C1=N\OCCN1C[C@H]2C[C@@H]1CN2 [Example 9, (2Z,3E)-3-((2-((1R,4R)-2,5-diazabicyclo[2.2.1]heptan-2-yl)ethoxy)imino)-5′-fluoro-[2,3′-biindolinylidene]-2′-one] | 3.87 nM | 0.667 nM | 0.49 nM | 1.02 nM
O=C(CO/N=C1/C(=C2/C(=O)Nc3ccccc32)Nc2ccccc21)N[C@H]1[C@@H]2CNC[C@@H]21 [Example 16, N-((1R,5S,6s)-3-azabicyclo[3.1.0]hexan-6-yl)-2-(((E)-((Z)-2′-oxo-[2,3′-biindolinylidene]-3-ylidene)amino)oxy)acetamide] | 3.13 nM | 0.661 nM | 0.873 nM | 1.19 nM
N[C@@H]1[C@H]2CN(CCO/N=C3/C(=C4/C(=O)Nc5ccc(F)cc54)Nc4ccccc43)C[C@@H]12 [Example 8, (2Z,3E)-3-((2-((1R,5S,6s)-6-amino-3-azabicyclo[3.1.0]hexan-3-yl)ethoxy)imino)-5′-fluoro-[2,3′-biindolinylidene]-2′-one] | 1.35 nM | 0.303 nM | 0.441 nM | 0.344 nM
O=C1Nc2ccccc2/C1=C1/Nc2ccccc2/C1=N\OCCN1C[C@H]2C[C@@H]1CN2 [Example 4, (2Z,3E)-3-((2-((1R,4R)-2,5-diazabicyclo[2.2.1]heptan-2-yl)ethoxy)imino)-[2,3′-biindolinylidene]-2′-one] | 1.37 nM | 0.216 nM | 0.423 nM | 0.348 nM
O=C1Nc2ccccc2/C1=C1/Nc2ccccc2/C1=N\OCCN1C[C@@H]2C[C@H]1CN2 [Example 5, (2Z,3E)-3-((2-((1S,4S)-2,5-diazabicyclo[2.2.1]heptan-2-yl)ethoxy)imino)-[2,3′-biindolinylidene]-2′-one] | 1.57 nM | 0.135 nM | 1.85 nM | 0.771 nM
O=C1Nc2ccc(F)cc2/C1=C1/Nc2ccccc2/C1=N\OCCN1C[C@@H]2C[C@H]1CN2 [Example 10, (2Z,3E)-3-((2-((1S,4S)-2,5-diazabicyclo[2.2.1]heptan-2-yl)ethoxy)imino)-5′-fluoro-[2,3′-biindolinylidene]-2′-one] | 2.41 nM | 0.428 nM | 0.815 nM | 0.617 nM
N[C@@H]1[C@H]2CN(CCO/N=C3/C(=C4/C(=O)Nc5ccccc54)Nc4ccccc43)C[C@@H]12 [Example 3, (2Z,3E)-3-((2-((1R,5S,6s)-6-amino-3-azabicyclo[3.1.0]hexan-3-yl)ethoxy)imino)-[2,3′-biindolinylidene]-2′-one] | 3.78 nM | 0.303 nM | 0.969 nM | 1.02 nM
O=C1Nc2ccc(Br)cc2/C1=C1/Nc2ccccc2/C1=N\OCCN1C[C@H]2C[C@@H]1CN2 [Example 13, (2Z,3E)-3-((2-((1R,4R)-2,5-diazabicyclo[2.2.1]heptan-2-yl)ethoxy)imino)-5′-bromo-[2,3′-biindolinylidene]-2′-one] | 4.72 nM | 0.686 nM | 1.31 nM | 1.03 nM
O=C1Nc2ccc(F)cc2/C1=C1/Nc2ccccc2/C1=N\OCC(=O)N1CC2(CNC2)C1 [Example 18, (2Z,3E)-5′-fluoro-3-((2-oxo-2-(2,6-diazaspiro[3.3]heptan-2-yl)ethoxy)imino)-[2,3′-biindolinylidene]-2′-one] | 2.15 nM | 0.306 nM | 1.12 nM | 0.921 nM
O=C1Nc2ccccc2/C1=C1/Nc2ccccc2/C1=N\OCCN[C@H]1[C@@H]2CNC[C@@H]21 [Example 2, (2Z,3E)-3-((2-((1R,5S,6s)-3-azabicyclo[3.1.0]hexan-6-ylamino)ethoxy)imino)-[2,3′-biindolinylidene]-2′-one] | 2.49 nM | 0.524 nM | 0.964 nM | 1.25 nM
O=C1Nc2ccc(F)cc2/C1=C1/Nc2ccccc2/C1=N\OCCN1CC2(CNC2)C1 [Example 6, (2Z,3E)-3-((2-(2,6-diazaspiro[3.3]heptan-2-yl)ethoxy)imino)-5′-fluoro-[2,3′-biindolinylidene]-2′-one] | 2.44 nM | 0.488 nM | 0.668 nM | 0.67 nM
O=C1Nc2ccc(F)cc2/C1=C1/Nc2ccccc2/C1=N\OCC(=O)N1C[C@H]2C[C@@H]1CN2 [Example 20, (2Z,3E)-3-((2-((1R,4R)-2,5-diazabicyclo[2.2.1]heptan-2-yl)-2-oxoethoxy)imino)-5′-fluoro-[2,3′-biindolinylidene]-2′-one] | 2.94 nM | 0.271 nM | 1.88 nM | 1.19 nM
O=C1Nc2ccc(F)cc2/C1=C1/Nc2ccccc2/C1=N\OCCN[C@H]1[C@@H]2CNC[C@@H]21 [Example 7, (2Z,3E)-3-((2-((1R,5S,6s)-3-azabicyclo[3.1.0]hexan-6-ylamino)ethoxy)imino)-5′-fluoro-[2,3′-biindolinylidene]-2′-one] | 1.47 nM | 0.37 nM | 1.03 nM | 0.666 nM
